The target of assay [1] is T1, hGIPR (Homo sapiens, UniProt P48546).
T1 construct: expressed in transfected cells
T1 sequence (P48546 22-466): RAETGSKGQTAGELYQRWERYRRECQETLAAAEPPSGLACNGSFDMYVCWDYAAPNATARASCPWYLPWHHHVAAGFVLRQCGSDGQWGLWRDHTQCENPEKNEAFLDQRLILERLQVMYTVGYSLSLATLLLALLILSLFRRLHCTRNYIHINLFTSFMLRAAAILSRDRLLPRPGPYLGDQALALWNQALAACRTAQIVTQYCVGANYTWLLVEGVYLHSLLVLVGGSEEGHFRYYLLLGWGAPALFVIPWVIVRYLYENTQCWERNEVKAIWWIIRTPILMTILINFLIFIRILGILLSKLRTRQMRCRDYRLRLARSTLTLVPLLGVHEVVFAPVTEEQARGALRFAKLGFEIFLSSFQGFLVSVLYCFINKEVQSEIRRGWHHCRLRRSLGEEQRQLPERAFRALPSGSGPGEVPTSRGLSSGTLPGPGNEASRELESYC
In words: Functional cAMP formation (HTRF) in HEK-293 clonal cells expressing hGIPR, 0.1% bovine casein, without or with 1.0% human serum albumin. The settings on record: for EC50: geometric mean. Type of assay: cell-based. A digest of the protocol: (§1)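 Cells were stimulated with peptide for 30 min at 37° C, then intracellular cAMP was measured by competitive HTRF (665/620 nm ratio) and converted to nM using a cAMP standard curve. Relative EC50 and Emax came from four-parameter logistic fits of percent maximal response against peptide concentration.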
For orientation: Cyclic AMP is a second messenger, typically raised through Gs and lowered through Gi signalling.

The target of assay [2] is hGLP-1R (Homo sapiens, UniProt P43220). In words: Functional cAMP formation (HTRF) in HEK-293 clonal cells expressing hGLP-1R, 0.1% bovine casein, without or with 1.0% human serum albumin. Type of assay: cell-based. More on the design: expressed in transfected cells. The settings on record: for EC50: geometric mean; for Emax: percent of maximal response to GLP-1(7-36)NH2. An outline of the steps: as §1
Chain of hGLP-1R (P43220 24-463): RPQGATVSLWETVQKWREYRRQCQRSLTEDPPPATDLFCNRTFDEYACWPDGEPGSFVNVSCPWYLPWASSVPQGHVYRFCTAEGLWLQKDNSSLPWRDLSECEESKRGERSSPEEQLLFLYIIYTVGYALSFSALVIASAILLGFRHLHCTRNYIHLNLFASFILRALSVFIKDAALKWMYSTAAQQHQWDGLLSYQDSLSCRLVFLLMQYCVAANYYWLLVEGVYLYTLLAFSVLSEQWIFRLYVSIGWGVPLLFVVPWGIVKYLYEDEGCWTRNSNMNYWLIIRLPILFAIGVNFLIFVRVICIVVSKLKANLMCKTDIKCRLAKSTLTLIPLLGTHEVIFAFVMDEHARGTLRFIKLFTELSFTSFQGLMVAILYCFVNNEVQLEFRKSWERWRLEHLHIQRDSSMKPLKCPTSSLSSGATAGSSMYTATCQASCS

Assay [3] has as its target T2, human GLP-1 receptor (hGLP-1R) (Homo sapiens, UniProt P43220).
T2 construct: expressed in transfected cells; crude membranes
In words: [125I]-GLP-1 binding, SPA with membranes of HEK293 cells expressing hGLP-1R.

For assay [4], the target named is T3, hGCGR (Homo sapiens, UniProt P47871).
T3 construct: expressed in transfected cells
T3 sequence (P47871 26-477): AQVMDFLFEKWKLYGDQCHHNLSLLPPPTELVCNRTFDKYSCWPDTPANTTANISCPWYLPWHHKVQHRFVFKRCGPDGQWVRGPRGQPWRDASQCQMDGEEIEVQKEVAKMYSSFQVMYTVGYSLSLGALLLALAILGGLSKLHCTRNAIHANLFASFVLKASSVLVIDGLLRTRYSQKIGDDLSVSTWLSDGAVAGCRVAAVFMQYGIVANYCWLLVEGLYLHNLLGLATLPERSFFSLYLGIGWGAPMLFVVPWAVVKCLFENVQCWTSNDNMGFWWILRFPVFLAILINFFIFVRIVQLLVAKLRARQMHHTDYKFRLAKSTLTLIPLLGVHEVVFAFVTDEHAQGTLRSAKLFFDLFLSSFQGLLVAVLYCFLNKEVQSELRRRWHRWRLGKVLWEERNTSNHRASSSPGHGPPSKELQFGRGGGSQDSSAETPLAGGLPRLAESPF
In words: Functional cAMP formation (HTRF) in HEK-293 clonal cells expressing hGCGR, 0.1% bovine casein, without or with 1.0% human serum albumin. Type of assay: cell-based. An outline of the steps:
as §1

Like-named read-outs stand apart in the source and are kept apart here.

The EC50 is the concentration that produces a half-maximal response. In general, Emax refers to the maximal effect, on the per cent scale that the assay sets. For orientation: Ki means a measure of affinity in units of concentration, obtained from inhibition or displacement.

T2 sequence (P43220 24-463): as the sequence (P43220 24-463) above

As for `CC[C@H](C)[C@H](NC(=O)[C@H](CCCN)NC(=O)[C@H](CC(=O)O)NC(=O)[C@H](CC(C)C)NC(=O)[C@](C)(CC(C)C)NC(=O)[C@@H](NC(=O)[C@H](CO)NC(=O)[C@H](Cc1ccncc1)NC(=O)[C@H](CC(=O)O)NC(=O)[C@H](CO)NC(=O)[C@@H](NC(=O)[C@](C)(Cc1ccccc1F)NC(=O)[C@@H](NC(=O)CNC(=O)[C@H](CCC(=O)O)NC(=O)C(C)(C)NC(=O)[C@@H](N)Cc1ccc(O)cc1)[C@@H](C)O)[C@@H](C)O)[C@@H](C)CC)C(=O)N[C@@H](C)C(=O)N[C@@H](CCC(N)=O)C(=O)NC(C)(C)C(=O)N[C@@H](CCCCNC(=O)COCCOCCNC(=O)COCCOCCNC(=O)CC[C@H](NC(=O)CCCCCCCCCCCCC(=O)O)C(=O)O)C(=O)N[C@@H](Cc1ccccc1)C(=O)N[C@H](C(=O)N[C@H](CCC(=O)O)C(=O)N[C@@](C)(Cc1ccc(O)cc1)C(=O)N[C@@H](CC(C)C)C(=O)N[C@H](C(=O)N[C@@H](CCCCNC(=O)COCCOCCNC(=O)COCCOCCNC(=O)CC[C@H](NC(=O)CCCCCCCCCCCCC(=O)O)C(=O)O)C(=O)NCC(=O)NCC(=O)N1CCC[C@H]1C(=O)N[C@@H](CO)C(=O)N[C@@H](CO)C(=O)NCC(=O)N[C@@H](C)C(=O)N1CCC[C@H]1C(=O)N1CCC[C@H]1C(=O)N1CCC[C@H]1C(=O)N[C@@H](CO)C(N)=O)[C@@H](C)CC)[C@@H](C)CC` [Example 73], the EC50 in assay [1] (0.1% bovine casein and 1.0% human serum albumin, 37° C., read-out: hGIPR EC50, nM (SEM, n)) is 2.16 nM; in assay [1] (cAMP, incubated at 37° C., 0.1% bovine casein (no human serum albumin), read-out: hGIPR EC50, nM (SEM, n)) it was 0.0207 nM; in assay [2] (0.1% bovine casein and 1.0% human serum albumin, 37° C., read-out: hGLP-1R EC50, nM (SEM, n)), 56.2 nM; in assay [2] (cAMP, incubated at 37° C., 0.1% bovine casein (no human serum albumin), read-out: hGLP-1R EC50, nM (SEM, n)), 0.437 nM; in assay [4] (0.1% bovine casein and 1.0% human serum albumin, 37° C., geometric mean, read-out: hGCGR EC50, nM (SEM, n)), above 9950 nM; in assay [4] (cAMP, incubated at 37° C., 0.1% bovine casein (no human serum albumin), geometric mean, read-out: hGCGR EC50, nM (SEM, n)), above 9950 nM. Further, the maximal response (Emax) was 80.2% in assay [1] (HEK293, 0.1% bovine casein and 1.0% human serum albumin, 37° C., percent of maximal response to GIP(1-42)NH2, read-out: hGIPR Emax, % ± SEM); 97.1 ± 2.7% in assay [1] (HEK293, percent of maximal response to GIP(1-42)NH2, 37° C., 0.1% bovine casein, arithmetic mean, read-out: hGIPR Emax, % ± SEM); 109% in assay [2] (HEK293, 0.1% bovine casein and 1.0% human serum albumin, 37° C., read-out: hGLP-1R Emax, % ± SEM). For the same compound, the Ki in assay [3] (human GLP-1R, geometric mean (SEM, n), read-out: Binding Affinity Ki, nM (SEM, n) hGLP-1R) came out at 3.38 nM.
As to `CCCCCCCCCCCCCCCC(=O)N[C@@H](CCC(=O)NCCOCCOCC(=O)NCCOCCOCC(=O)NCCCC[C@H](NC(=O)[C@H](CCCN)NC(=O)[C@H](CC(=O)O)NC(=O)[C@H](CC(C)C)NC(=O)[C@](C)(CC(C)C)NC(=O)[C@@H](NC(=O)[C@H](CO)NC(=O)[C@H](Cc1ccncc1)NC(=O)[C@H](CC(=O)O)NC(=O)[C@H](CO)NC(=O)[C@@H](NC(=O)[C@](C)(Cc1ccccc1F)NC(=O)[C@@H](NC(=O)CNC(=O)[C@H](CCC(=O)O)NC(=O)C(C)(C)NC(=O)[C@@H](N)Cc1ccc(O)cc1)[C@@H](C)O)[C@@H](C)O)[C@@H](C)CC)C(=O)N[C@@H](C)C(=O)N[C@@H](CCC(N)=O)C(=O)NC(C)(C)C(=O)N[C@@H](CCC(=O)O)C(=O)N[C@@H](Cc1ccccc1)C(=O)N[C@H](C(=O)N[C@@H](CCCCNC(=O)COCCOCCNC(=O)COCCOCCNC(=O)CC[C@H](NC(=O)CCCCCCCCCCCCCCC)C(=O)O)C(=O)N[C@@](C)(Cc1ccc(O)cc1)C(=O)N[C@@H](CC(C)C)C(=O)N[C@H](C(=O)N[C@@H](CCC(=O)O)C(=O)NCC(=O)NCC(=O)N1CCC[C@H]1C(=O)N[C@@H](CO)C(=O)N[C@@H](CO)C(=O)NCC(=O)N[C@@H](C)C(=O)N1CCC[C@H]1C(=O)N1CCC[C@H]1C(=O)N1CCC[C@H]1C(=O)N[C@@H](CO)C(N)=O)[C@@H](C)CC)[C@@H](C)CC)C(=O)O` [Example 22], the Emax in assay [1] (HEK293, read-out: hGIPR Emax, % ± SEM, 0.1% bovine casein and 1.0% human serum albumin, 37° C., percent of maximal response to GIP(1-42)NH2) came to 93.4 ± 0.775%. The EC50 is 0.533 nM in assay [1] (hGIPR EC50, nM (SEM, n), 0.1% bovine casein and 1.0% human serum albumin, 37° C.); 1.5 nM in assay [2] (hGLP-1R EC50, nM (SEM, n), 0.1% bovine casein and 1.0% human serum albumin, 37° C.); above 9950 nM in assay [4] (hGCGR EC50, nM (SEM, n), 0.1% bovine casein and 1.0% human serum albumin, 37° C., geometric mean); above 9950 nM in assay [4] (hGCGR EC50, nM (SEM, n), cAMP, incubated at 37° C., 0.1% bovine casein (no human serum albumin), geometric mean). For the same compound, in assay [3], affinity was put at a Ki of 0.301 nM.
Consider `CC[C@H](C)[C@H](NC(=O)[C@H](CC(C)C)NC(=O)[C@](C)(Cc1ccc(O)cc1)NC(=O)[C@H](CCCCNC(=O)COCCOCCNC(=O)CC[C@H](NC(=O)COCCOCCNC(=O)CC[C@H](NC(=O)CCCCCCCCCOc1ccc(C(=O)O)cc1)C(=O)O)C(=O)O)NC(=O)[C@@H](NC(=O)[C@H](Cc1ccccc1)NC(=O)[C@H](CCCN)NC(=O)C(C)(C)NC(=O)[C@H](CCC(N)=O)NC(=O)[C@H](C)NC(=O)[C@H](CCC(N)=O)NC(=O)[C@H](CCCN)NC(=O)[C@H](CC(=O)O)NC(=O)[C@H](CC(C)C)NC(=O)[C@](C)(CC(C)C)NC(=O)[C@@H](NC(=O)C(C)(C)NC(=O)[C@H](Cc1ccncc1)NC(=O)[C@H](CC(=O)O)NC(=O)[C@H](CO)NC(=O)[C@@H](NC(=O)[C@](C)(Cc1ccccc1F)NC(=O)[C@@H](NC(=O)CNC(=O)[C@H](CCC(=O)O)NC(=O)C(C)(C)NC(=O)[C@@H](N)Cc1ccc(O)cc1)[C@@H](C)O)[C@@H](C)O)[C@@H](C)CC)[C@@H](C)CC)C(=O)N[C@@H](CCCCNC(=O)COCCOCCNC(=O)CC[C@H](NC(=O)COCCOCCNC(=O)CC[C@H](NC(=O)CCCCCCCCCOc1ccc(C(=O)O)cc1)C(=O)O)C(=O)O)C(=O)NCC(=O)NCC(=O)N1CCC[C@H]1C(=O)N[C@@H](CO)C(=O)N[C@@H](CO)C(=O)NCC(=O)N[C@@H](C)C(=O)N1CCC[C@H]1C(=O)N1CCC[C@H]1C(=O)N1CCC[C@H]1C(=O)N[C@@H](CO)C(N)=O` [Example 485], for which the Emax came to 93.8% in assay [1] (HEK293, read-out: hGIPR Emax, % ± SEM, cAMP, 37° C., 0.1% bovine casein and 1.0% human serum albumin, percent of maximal response to GIP(1-42)NH2); 115% in assay [2] (HEK293, read-out: hGLP-1R Emax, % ± SEM, cAMP, 37° C., 0.1% bovine casein, arithmetic mean). Besides, the EC50 in assay [1] (hGIPR EC50, nM (SEM, n), cAMP, 37° C., 0.1% bovine casein (no human serum albumin)) is 0.0113 nM; in assay [2] (hGLP-1R EC50, nM (SEM, n), cAMP, 37° C., 0.1% bovine casein (no human serum albumin)), 0.153 nM; in assay [4] (hGCGR EC50, nM (SEM, n), cAMP, 37° C., 0.1% bovine casein (no human serum albumin), geometric mean) it was above 10100 nM; in assay [4] (hGCGR EC50, nM (SEM, n), cAMP, 37° C., 0.1% bovine casein and 1.0% human serum albumin, geometric mean (SEM, n)), above 9950 nM. The compound also registered a Ki in assay [3] of 0.3 nM.

The values are drawn from US20230265151A1, “GIP/GLP1 CO-AGONIST COMPOUNDS” (priority 2020, published 2023).
